Assay results from publication PMC12648864 (Biology of Sex Differences, 2025).
Like-named read-outs stand apart in the source and are kept apart here.

Experiments:
[1] = cited from earlier work
[2] = design: method as in PMID 27169283; settings: ovariectomized rat, plasma; cited from earlier work
[3] = in vivo; settings: for AUC(0-t) / AUC(0-inf) / Cmax / Tmax / half-life: Sprague-Dawley, rat, plasma, po, 0.59 mg/kg
Description: In detail, 6 intact 8-week-old male and female Sprague-Dawley (SD) rats, as well as 6 intact 5-week-old male and female SD rats were purchased from Changyang Xishan Breeding Farm (Beijing Changyang Xishan Breeding Farm, China). All rats were provided standard chow and freely-available drinking water. They were acclimatized for 1 week and fasted overnight before drug administration. The rats were divided into intact and GDX groups, with 6 males and 6 females in each group. In GDX group, testes were surgically removed from male rat at 5 weeks of age, while ovaries were excised from female rat. Following surgery, GDX rats were maintained for an additional […] before testing. All animals, both intact and GDX, were tested at 8 weeks of age.
Blood was collected from orbital vein into a centrifuge tube containing sodium heparin at following time points: 5, 10, 15, 30, and 45 min, as well as 1, 1.5, 2, 4, 6, 8, 12, 24, and 48 h. The collected blood was shaken well and centrifuged at 1500 g for 10 min to separate plasma, then stored at −20 ℃ until use. All experimental procedures were reviewed and approved by the Ethical Committee for Use of Laboratory Animals of the Shanxi Medical University (SYDL2025013).
In detail, 180 µL of plasma was pipetted into a tube, followed by the addition of 20 µL of internal standard (100 ng/mL ephedrine) and the mixture was vortexed for 5 s. Next, 1 mL of acetonitrile precipitation protein was added to this mixture, which was vortexed again for 20 s. Finally, the mixture was centrifuged at 13,000 g for 10 min and the supernatant was transferred to a clean tube. This supernatant was evaporated to dryness under a stream of nitrogen at 35 ℃, then reconstituted in 200 µL of a compound solution consisting of methanol and […] ammonium formate (containing 0.1% formic acid) in a 40:60 (v/v) ratio. The reconstituted supernatant was stored at −80 ℃ until use. Subsequently, the supernatant was passed through a 0.22 μm organic filter before analysis using 1260–6470 HPLC-tandem mass spectrometry (MS/MS).
The mobile phase consisted of A: water + […] ammonium formate + 0.1% formic acid, and B: methanol. The gradient elution program was as follows: 0–1 min, 20% B; 1–6.5 min, 20%−80% B; 6.5–7.5 min, 80% B; 7.5–8.5 min, 80%−20% B; 8.5–12 min, 20% B.
MS conditions: Detection was carried out using an Agilent Jet Stream electrospray ionization source in positive ion mode, operating in multiple reaction monitoring mode. The ion source temperature was 300 ℃, and the nebulizer temperature was 305 ℃. The gas flow rate was maintained at 11.0 L/min, with the capillary voltage of 4000 V.

[4] = design: method as in PMID 38276513; settings: following gonadectomy; cited from earlier work
[5] = female, GDX female rats, oral 0.59 mg/kg
[6] = female, intact female rats, oral 0.59 mg/kg
[7] = male, GDX male rats, oral 0.59 mg/kg
[8] = male, intact male rats, oral 0.59 mg/kg

In the case of `COc1c([C@H]2[C@H](C(=O)Nc3ccnc(C(N)=O)c3)O[C@@](C)(C(F)(F)F)[C@H]2C)ccc(F)c1F` [VX-548], the AUC ([1]; female rats) is given as 1505.8 ± 47.3 ng·h/mL, the clearance rate ([1]; female rats) is given as 12.5 ± 0.8 mL/min/kg and the AUC ([1]; male rats) is given as 253.8 ± 6.3 ng·h/mL. The clearance rate ([1]; male rats) was 65.1 ± 1.7 mL/min/kg.
For `C[C@H]1O[C@@H](O[C@H]2[C@@H](O)C[C@H](O[C@H]3[C@@H](O)C[C@H](O[C@H]4CC[C@@]5(C)[C@H](CC[C@@H]6[C@@H]5C[C@@H](O)[C@]5(C)[C@@H](C7=CC(=O)OC7)CC[C@]65O)C4)O[C@@H]3C)O[C@@H]2C)C[C@H](O)[C@@H]1O` [digoxin], the “peak digoxin concentration after ovariectomy” value [2] is given as “significantly lower”.
With `O=C1C[C@@H]2OCC=C3CN4CC[C@]56c7ccccc7N1[C@H]5[C@H]2[C@H]3C[C@H]46` [strychnine, Strychnine nitrate] the “delay of time to peak concentration, female later than male rats” value ([3]; GDX group, oral 0.59 mg/kg) was 0.6 h, the “peak of plasma concentration in female rats relative to male rats” value ([3]; GDX group, oral 0.59 mg/kg) was 3.70 times and the AUC(0-t) [3, 5] was 489 ± 40.6 ng·h/mL. For the same compound, the AUC(0-t) [3, 6] was 409 ± 58.4 ng·h/mL, the AUC(0-inf) [3, 5] was 501 ± 43.5 ng·h/mL and the AUC(0-inf) [3, 6] was 403 ± 57.7 ng·h/mL. It also gave a Cmax [3, 5] of 48.1 ± 4.06 ng/mL, a Cmax [3, 6] of 116 ± 2.7 ng/mL and a Tmax ([3]; female) of 0.63 ± 0.14 h. The Tmax [3, 5] was 1.6 ± 0.22 h, the half-life ([3]; female, t1/2, GDX female rats, oral 0.59 mg/kg) was 9.06 ± 1.82 h and the half-life ([3]; female, t1/2, intact female rats, oral 0.59 mg/kg) was 5.7 ± 2.6 h. For the same compound, the “delay of time to peak concentration, female later than male rats” value ([3]; intact group, oral 0.59 mg/kg) was 0.05 h, the “peak of plasma concentration in female rats relative to male rats” value ([3]; intact group, oral 0.59 mg/kg) was 3.49 times and the AUC(0-t) [3, 7] was 152 ± 10.4 ng·h/mL. It also gave an AUC(0-t) [3, 8] of 96.8 ± 24.9 ng·h/mL, an AUC(0-inf) [3, 7] of 153 ± 10.3 ng·h/mL and an AUC(0-inf) [3, 8] of 97 ± 24.7 ng·h/mL. For the same compound, the Cmax [3, 7] was 13 ± 0.6 ng/mL, the Cmax [3, 8] was 33.4 ± 2.01 ng/mL and the Tmax ([3]; male) was 0.58 ± 0.13 h. The Tmax [3, 7] was 1 h, the half-life ([3]; male, t1/2, GDX male rats, oral 0.59 mg/kg) was 7.68 ± 0.94 h and the half-life ([3]; male, t1/2, intact male rats, oral 0.59 mg/kg) was 3.84 ± 1.48 h.
For `NCCCC(=O)O` [γ-aminobutyric acid], the “area under the curve, testosterone-treated male rats versus female rats with similar treatment” value [4] is given as “higher” and the “renal clearance, testosterone-treated male rats versus female rats with similar treatment” value [4] is given as “significantly lower”.
